Experimental data as given in US20100240683A1, “COMBINATION THERAPY, COMPOSITION AND METHODS FOR THE TREATMENT OF CARDIOVASCULAR DISORDERS” (Syndromex Ltd., priority 2007, published 2010).

Legend:
[1] = system: dyslipidemic non-diabetic patients; assay: Hypolipidemic effect of M16ββ in dyslipidemic non-diabetic patients; type: in vivo, human; conditions: p.o. 200 mg/day to 800 mg/day
Experimental: Eight dyslipidemic non-diabetic patients were subjected to 4-5 weeks maintenance period on placebo followed by a period of 3-5 months of treatment p.o. with increasing M16ββ doses ranging from 200 mg/day to 800 mg/day.

[2] = system: obese dyslipidemic, insulin resistant non-diabetic patients; assay: Sensitization to insulin in obese dyslipidemic, insulin resistant non-diabetic patients; type: in vivo, human
Experimental: Five obese dyslipidemic, insulin resistant non-diabetic patients were subjected to 4 weeks maintenance period on placebo followed by treatment p.o. with increasing daily doses ranging from 30-600 mg M16ββ per dose for a period of 4 weeks.

[3] = p.o. 30-600 mg per dose daily, 4 weeks

SMILES: CC(C)(CCCCCCCCCCC(C)(C)CC(=O)O)CC(=O)O [M16ββ, 3,3,14,14-tetramethylhexadecane-1,16-dioic acid]
- time into treatment at which hypolipidemic effect was observed [1]: less than 1 month
- Plasma LDL-C ([1]; 3-5 months): remained unaffected
- decrease in plasma triglycerides (mean) ([1]; 3-5 months): 55%
- increase in HDL-C ([1]; 3-5 months): 13%
- plasma fibrinogen ([1]; 3-5 months): decrease
- tolerability ([1]; 3-5 months): well tolerated in all dosages
- hypolipidemic efficacy ([2]; at daily doses below 200 mg): substantial hypolipidemic efficacy
- HOMA (homeostatic model assessment) [2, 3]: decrease
- LDL-C [2, 3]: no change
- VLDL-C [2, 3]: robust decrease
- glucose uptake [2, 3]: increased
- plasma insulin clearance [2, 3]: increase
- plasma insulin levels [2, 3]: decrease
- sensitization to insulin [2, 3]: increased sensitization to insulin
- tolerability [2, 3]: well tolerated in all dosages
